Measured values as given in patent US7355042B2, “Treatment of CNS disorders using CNS target modulators” (Hypnion, Inc., priority 2001, dated 2008).
Values joined by “and” are separate entries in the source; they are usually repeats but may differ in a detail not shown here. Identical values can stand only once.

Legend:
male Wistar rats = assay: Sleep-wakefulness, locomotor activity and body temperature monitoring (SCORE-2000); type: in vivo, rat; conditions: for sleep continuity, as assessed by sleep bout length: 10 mg/kg PO at CT-18, male Wistar rats; for total sleep time post-treatment: 10 mg/kg PO at CT-18, versus methylcellulose vehicle; for body temperature adverse effects / disproportional locomotor inhibition: rats; for net longest sleep bout post treatment: adjusted using a baseline value at least 24 hours prior; for net longest sleep bout post treatment / average sleep bout / nonREM peak time value / cumulative total increase in nonREM sleep / REM sleep inhibition / locomotor activity inhibition relative to the normal effects of sleep / longest sleep bout / rebound insomnia: functional criteria list; for average sleep bout: at absolute peak; for nonREM peak time value: by the third hour after administration; for cumulative total increase in nonREM sleep: doses that produce maximum sleep consolidation
[1] = molecular target: T1, human recombinant M1 muscarinic receptor expressed in CHO cells (Homo sapiens, UniProt P11229); assay: M1 binding assay (human recombinant), [3H]-scopolamine N-methyl chloride; conditions: Examples 15-17; unit inferred; read-out: binding affinity for cholinergic (muscarinic) receptor M1
T1 construct: expressed in transfected cells; host or cells: CHO cells
T1 sequence (P11229 1-460): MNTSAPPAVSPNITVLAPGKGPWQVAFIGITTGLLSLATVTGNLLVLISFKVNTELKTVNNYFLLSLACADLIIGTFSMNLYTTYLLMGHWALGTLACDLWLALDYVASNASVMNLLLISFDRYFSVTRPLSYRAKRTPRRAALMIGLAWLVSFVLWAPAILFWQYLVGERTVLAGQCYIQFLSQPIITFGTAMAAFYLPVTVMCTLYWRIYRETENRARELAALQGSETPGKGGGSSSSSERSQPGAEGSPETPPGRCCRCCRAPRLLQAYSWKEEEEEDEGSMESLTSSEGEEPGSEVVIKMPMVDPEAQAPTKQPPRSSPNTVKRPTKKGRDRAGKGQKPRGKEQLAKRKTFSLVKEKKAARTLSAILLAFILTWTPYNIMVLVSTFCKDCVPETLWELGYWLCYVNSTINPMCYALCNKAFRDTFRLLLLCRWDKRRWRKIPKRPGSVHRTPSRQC

[2] = molecular target: T2, human recombinant M2 muscarinic receptor expressed in CHO cells (Homo sapiens, UniProt P08172); assay: M2 binding assay (human recombinant); conditions: Examples 15-17; unit inferred; read-out: binding affinity for cholinergic (muscarinic) receptor M2
T2 construct: expressed in transfected cells; host or cells: CHO cells
T2 sequence (P08172 1-466): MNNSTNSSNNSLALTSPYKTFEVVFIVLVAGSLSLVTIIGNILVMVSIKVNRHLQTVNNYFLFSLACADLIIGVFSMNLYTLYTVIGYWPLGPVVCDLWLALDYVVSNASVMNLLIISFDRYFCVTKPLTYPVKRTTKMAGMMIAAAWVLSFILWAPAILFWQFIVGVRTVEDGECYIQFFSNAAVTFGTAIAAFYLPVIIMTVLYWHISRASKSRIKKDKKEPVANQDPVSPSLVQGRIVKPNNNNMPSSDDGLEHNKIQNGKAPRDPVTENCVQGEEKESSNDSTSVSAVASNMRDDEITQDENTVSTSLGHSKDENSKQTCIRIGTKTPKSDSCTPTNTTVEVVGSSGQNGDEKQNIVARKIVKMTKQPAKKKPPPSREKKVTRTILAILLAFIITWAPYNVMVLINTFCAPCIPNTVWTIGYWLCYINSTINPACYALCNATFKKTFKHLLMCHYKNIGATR

[3] = molecular target: T3, human recombinant M3 muscarinic receptor expressed in CHO cells (Homo sapiens, UniProt P20309); assay: M3 binding assay (human recombinant); conditions: Examples 15-17; unit inferred; read-out: binding affinity for cholinergic (muscarinic) receptor M3
T3 construct: expressed in transfected cells; host or cells: CHO cells

[4] = molecular target: T4, H1 receptor from bovine cellular membranes (Bos taurus, UniProt P30546); assay: H1 binding assay, [3H]pyrilamine displacement; conditions: Examples 15-17; read-out: Ki, H1 binding assay
T4 construct: the H1 receptor was from bovine cellular membranes; from tissue

[5] = tested on: M3 receptor from guinea pig ileum membranes; conditions: read-out: Ki of reference compounds, M3 binding assay; cited from earlier work

T3 sequence (P20309 whole entry): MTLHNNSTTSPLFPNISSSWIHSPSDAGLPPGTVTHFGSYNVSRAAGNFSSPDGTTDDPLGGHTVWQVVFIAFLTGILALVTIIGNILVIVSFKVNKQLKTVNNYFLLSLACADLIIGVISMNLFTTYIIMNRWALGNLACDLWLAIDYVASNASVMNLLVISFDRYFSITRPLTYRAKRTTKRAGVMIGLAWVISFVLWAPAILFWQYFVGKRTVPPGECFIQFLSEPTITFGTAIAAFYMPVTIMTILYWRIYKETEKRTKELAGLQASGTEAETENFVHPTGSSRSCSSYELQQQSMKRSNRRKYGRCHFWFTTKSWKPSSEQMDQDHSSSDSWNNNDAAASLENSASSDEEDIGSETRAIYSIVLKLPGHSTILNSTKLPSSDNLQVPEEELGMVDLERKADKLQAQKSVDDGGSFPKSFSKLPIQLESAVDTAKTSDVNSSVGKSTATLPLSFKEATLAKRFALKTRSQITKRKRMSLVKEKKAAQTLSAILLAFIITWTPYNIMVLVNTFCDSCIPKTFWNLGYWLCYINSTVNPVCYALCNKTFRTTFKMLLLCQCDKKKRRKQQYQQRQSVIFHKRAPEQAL
T4 sequence (P30546 whole entry): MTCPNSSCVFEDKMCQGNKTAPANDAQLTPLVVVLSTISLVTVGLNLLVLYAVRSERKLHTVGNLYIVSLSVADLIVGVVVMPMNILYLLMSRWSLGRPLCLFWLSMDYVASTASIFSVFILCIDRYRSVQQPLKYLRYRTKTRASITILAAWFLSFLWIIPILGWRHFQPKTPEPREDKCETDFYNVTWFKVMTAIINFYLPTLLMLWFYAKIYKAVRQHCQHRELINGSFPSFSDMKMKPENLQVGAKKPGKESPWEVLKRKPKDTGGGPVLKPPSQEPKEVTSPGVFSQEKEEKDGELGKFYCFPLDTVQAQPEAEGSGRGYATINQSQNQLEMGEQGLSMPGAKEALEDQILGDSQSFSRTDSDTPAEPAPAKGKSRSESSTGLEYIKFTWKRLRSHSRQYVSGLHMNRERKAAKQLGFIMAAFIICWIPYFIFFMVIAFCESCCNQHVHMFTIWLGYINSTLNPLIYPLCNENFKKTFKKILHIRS

With `O=C(O)CCCN1CCC(=C2c3ccccc3COc3ccccc32)CC1` [Compound 73a] the “Average Bout-Length” value (male Wistar rats; 30 mg/kg PO at CT-18) was 14.5 min, the “Duration (hrs)” value (male Wistar rats; 30 mg/kg PO at CT-18) was 5-6+ hrs and the “Maximum Bout Length” value (male Wistar rats; 30 mg/kg PO at CT-18) was 27.6 min. For the same molecule, the “NREM Accum.” value (male Wistar rats; 30 mg/kg PO at CT-18) was 47.3 min, the “NREM Peak (%/hr)” value (male Wistar rats; 30 mg/kg PO at CT-18) was 62.2 %/hr and the “Onset” value (male Wistar rats; 30 mg/kg PO at CT-18) was 45 min.

With `CC(C)(CN1CCC(=C2c3ccccc3COc3ccccc32)CC1)C(=O)O` [Compound 74a] the “Average Bout-Length” value (male Wistar rats; 30 mg/kg PO at CT-18) was 9.9 min, the “Duration” value (male Wistar rats; 30 mg/kg PO at CT-18) was 5 to 6 h and the “Maximum Bout Length” value (male Wistar rats; 30 mg/kg PO at CT-18) was 22.3 min. The “NREM Accum.” value (male Wistar rats; 30 mg/kg PO at CT-18) was 43.4 min, the “NREM Peak (%/hr)” value (male Wistar rats; 30 mg/kg PO at CT-18) was 64.4 %/hr and the “Onset” value (male Wistar rats; 30 mg/kg PO at CT-18) was 70 to 80 min.

For `CC(C)(CCN1CCC(=C2c3ccccc3COc3ccccc32)CC1)C(=O)O` [Compound 75a], the “Average Bout-Length” value (male Wistar rats; 30 mg/kg PO at CT-18) was 6.8 min, the “Duration” value (male Wistar rats; 30 mg/kg PO at CT-18) was 4 h and the “Maximum Bout Length” value (male Wistar rats; 30 mg/kg PO at CT-18) was 13.6 min. For the same molecule, the “NREM Accum.” value (male Wistar rats; 30 mg/kg PO at CT-18) was 33.9 min, the “NREM Peak (%/hr)” value (male Wistar rats; 30 mg/kg PO at CT-18) was 58.8 %/hr and the “Onset” value (male Wistar rats; 30 mg/kg PO at CT-18) was 70 to 85 min. The “Average Bout-Length” value (male Wistar rats; 45 mg/kg PO at CT-18) was 10.8 min, the “Duration” value (male Wistar rats; 45 mg/kg PO at CT-18) was 5 h and the “Maximum Bout Length” value (male Wistar rats; 45 mg/kg PO at CT-18) was 19.4 min. For the same molecule, the “NREM Accum.” value (male Wistar rats; 45 mg/kg PO at CT-18) was 33.9 min, the “NREM Peak (%/hr)” value (male Wistar rats; 45 mg/kg PO at CT-18) was 58.2 %/hr and the “Onset” value (male Wistar rats; 45 mg/kg PO at CT-18) was 70 to 85 min.

For `CC(C)(CCN1CCN(C2=Nc3ccccc3Oc3ccc(Cl)cc32)CC1)C(=O)O` [Compound SS1], the Ki [1] was > 10000 nM, the Ki [2] was > 10000 nM and the Ki [3] was > 10000 nM. The Ki [4] was 23.9 nM, the “sleep continuity, as assessed by sleep bout length” value (from here on “sleep continuity, as assessed”) (male Wistar rats) was “increased sleep continuity” and the “total sleep time post-treatment” value (male Wistar rats) was “significantly increased total sleep time”. The “body temperature adverse effects” value (male Wistar rats) was “no evidence of causing disproportional locomotor inhibition or body temperature adverse effects” and the disproportional locomotor inhibition (male Wistar rats) was “no evidence of causing disproportional locomotor inhibition or body temperature adverse effects”.

For `CC(C)(CN1CCN(C2=Nc3cc(Cl)ccc3Nc3ccccc32)CC1)C(=O)O` [Compound SS2], the Ki [1] was > 10000 nM, the Ki [2] was > 10000 nM and the Ki [3] was > 10000 nM. For the same molecule, the Ki [4] was 23.4 nM, the “sleep continuity, as assessed” value (male Wistar rats) was “increased sleep continuity” and the “total sleep time post-treatment” value (male Wistar rats) was “significantly increased total sleep time”. The “body temperature adverse effects” value (male Wistar rats) was “no evidence of causing disproportional locomotor inhibition or body temperature adverse effects” and the disproportional locomotor inhibition (male Wistar rats) was “no evidence of causing disproportional locomotor inhibition or body temperature adverse effects”.

With `Cl.O=C(O)CCN1CCC(=C(c2ccccc2)c2ccccc2)CC1` [Compound U1] the Ki [4] was < 500 nM, the “sleep continuity, as assessed” value (male Wistar rats) was “increased sleep continuity” and the “total sleep time post-treatment” value (male Wistar rats) was “significantly increased total sleep time”. The “net longest sleep bout post treatment” value (male Wistar rats) was “greater than or equal to 3 minutes”, the average sleep bout (male Wistar rats) was “greater than 5 minutes” and the “nonREM peak time value” (male Wistar rats) was “greater than 55 % nonREM sleep per hour”. The “cumulative total increase in nonREM sleep” value (male Wistar rats) was “not less than 20 minutes”, the REM sleep inhibition (male Wistar rats) was “does not appreciably inhibit REM sleep” and the “locomotor activity inhibition relative to the normal effects of sleep” value (male Wistar rats) was “does not disproportionately inhibit locomotor activity”. For the same molecule, the longest sleep bout (male Wistar rats) was “greater than 13 minutes”, the rebound insomnia (male Wistar rats) was “does not produce appreciable amounts of rebound insomnia” and the “body temperature adverse effects” value (male Wistar rats) was “no evidence of causing disproportional locomotor inhibition or body temperature adverse effects”. The disproportional locomotor inhibition (male Wistar rats) was “no evidence of causing disproportional locomotor inhibition or body temperature adverse effects”.

For `CC(C)(CN1CCC(N2c3ccccc3Sc3ccccc32)CC1)C(=O)O.Cl` [Compound UU1], the Ki [1] was > 10000 nM, the Ki [2] was > 10000 nM and the Ki [3] was > 10000 nM. The Ki [4] was < 500 nM and 13.6 nM, the “sleep continuity, as assessed” value (male Wistar rats) was “increased sleep continuity” and the “total sleep time post-treatment” value (male Wistar rats) was “significantly increased total sleep time”. The “net longest sleep bout post treatment” value (male Wistar rats) was “greater than or equal to 3 minutes”, the average sleep bout (male Wistar rats) was “greater than 5 minutes” and the “nonREM peak time value” (male Wistar rats) was “greater than 55 % nonREM sleep per hour”. For the same molecule, the “cumulative total increase in nonREM sleep” value (male Wistar rats) was “not less than 20 minutes”, the REM sleep inhibition (male Wistar rats) was “does not appreciably inhibit REM sleep” and the “locomotor activity inhibition relative to the normal effects of sleep” value (male Wistar rats) was “does not disproportionately inhibit locomotor activity”. The longest sleep bout (male Wistar rats) was “greater than 13 minutes”, the rebound insomnia (male Wistar rats) was “does not produce appreciable amounts of rebound insomnia” and the “body temperature adverse effects” value (male Wistar rats) was “no evidence of causing disproportional locomotor inhibition or body temperature adverse effects”. The disproportional locomotor inhibition (male Wistar rats) was “no evidence of causing disproportional locomotor inhibition or body temperature adverse effects”.

For `O[Si](CCCN1CCCCC1)(c1ccccc1)C1CCCCC1` (stereo not shown) [HHSID], the Ki [5] is given as 281 nM.
